Data set [1] concerns the target T1, BCoR-BCL6 (Homo sapiens, UniProt P41182).
Description: Inhibition of C-terminal biotin-labelled BCoR/wild-type BCL6 BTB domain (unknown origin) protein-protein interaction by ELISA
Data set [2] has as its target T2, B-cell lymphoma 6 protein (Homo sapiens, UniProt P41182).
Description: Binding affinity to wild-type avi-tagged BCL6 BTB domain (unknown origin) by SPR analysis
Data set [3] can be described thus: Aqueous solubility of the compound in aqueous buffer at pH 6.8 by UV-absorbance analysis. It is filed as physicochemical.
Data set [4] is described as follows: Permeability of the compound at pH 7.4 at 10 umol/L after 3 hrs by PAMPA. It is filed as physicochemical. As to conditions: for Papp at 3 h, 10 µM: PAMPA, pH 7.4, read-out: permeability; for permeability: pampa, pH 7.4, 3 h, 10 µM.
Data set [5] concerns the target T2, B-cell lymphoma 6 protein. Briefly: Displacement of A488-SMRT from BCL6 BTB domain (unknown origin) by fluorescence polarization assay.
A short description of data set [6]: Cytotoxicity against human HepG2 cells assessed as intracellular ATP levels at 30 uM after 24 hrs by CellTiter-Glo assay relative to control. As to conditions: read-out: Activity. It is filed as cell-based. Background: ATP-based viability assays read luminescence as a measure of living cells.
Data set [7] can be described thus: Oral bioavailability in mouse at 1 mg/kg administered as cassette dosing. In kind it is ADME, organism-based. As to conditions: in vivo.
Data set [8] is described as follows: AUC in mouse at 1 mg/kg, po administered as cassette dosing. As to conditions: in vivo. It is filed as ADME, organism-based.
Data set [9] is described as follows: Mean residence time in mouse at 1 mg/kg, po administered as cassette dosing. It is filed as ADME, organism-based. As to conditions: in vivo.
Data set [10] can be described thus: Volume of distribution at steady state in mouse at 1 mg/kg, po or 0.1 mg/kg, iv administered as cassette dosing. In kind it is ADME, organism-based. As to conditions: in vivo, read-out: Vdss.
Data set [11] addresses T1, BCoR-BCL6. Description: Inhibition of recombinant human BCoR (112 to 753 residues) protein interaction with recombinant GAL4-fused BCL6 (5 to 129 residues) expressed in HEK293T cells measured after 20 hrs by luciferase reporter gene based mammalian two-hybrid assay. In kind it is cell-based, HEK-293T. For orientation: In a reporter assay the amount or activity of a reporter protein is the signal.

The nature of data set [12]: Tmax in mouse at 1 mg/kg, po administered as cassette dosing. It is filed as ADME, organism-based. As to conditions: in vivo.
Data set [13] is described as follows: Cmax in mouse at 1 mg/kg, po administered as cassette dosing. In kind it is ADME, organism-based. On the set-up: dose 1 mg/kg, route oral. As to conditions: in vivo.
Data set [14] is described as follows: Total clearance in mouse at 1 mg/kg, po or 0.1 mg/kg, iv administered as cassette dosing. It is filed as ADME, organism-based. As to conditions: in vivo.

Converted amounts (≈) assume the structure as drawn. Bounds are passed on as bounds.

A word on the IC50: it is the midpoint of a concentration-inhibition curve. `Nc1cc(Nc2ccccc2)c2nonc2c1[N+](=O)[O-]`: at BCoR-BCL6 [1], it took 69 µM to reach half-maximal inhibition (IC50).
Usually Kd stands for the free concentration of one partner at which half of the binding sites on the other are occupied at equilibrium, for simple one-to-one binding. A high value points to a looser complex. In turn, `O=c1[nH]c2ccc(Nc3ccc([N+](=O)[O-])cc3Cl)cc2[nH]1` yielded a Kd in [2] of 5 µM. The same molecule showed a 50% inhibitory concentration (IC50) at BCoR-BCL6 [1] of 4.5 µM.
A word on the solubility: it is how much of the substance goes into solution per volume. The molecule `CCOC(=O)CCNc1cc(Nc2ccc3[nH]c(=O)[nH]c3c2)c(Cl)cc1[N+](=O)[O-]` had a solubility in data set [3] of 0.42 µg/mL (≈ 1 µM). Besides, the Papp at 3 h, 10 µM in data set [4] was 15.1 ×10⁻⁶ cm/s. For the same molecule, the IC50 on BCoR-BCL6 [1] is 0.43 µM.
`O=C(O)CC(C(=O)O)N1C(=O)/C(=C2/C(=O)Nc3ccc(Br)cc32)SC1=S` (centres undefined): the IC50 against BCoR-BCL6 [1] is 200 µM; in data set [5], 212 µM.
In [3], `O=c1[nH]c2ccc(Nc3cc(OC4CCOCC4)c([N+](=O)[O-])cc3Cl)cc2[nH]1` showed a solubility of 18 µg/mL (≈ 44.5 µM). For the same molecule, the viability at 24 h, 30 µM in data set [6] is 100%. Moreover, the Papp at 3 h, 10 µM in data set [4] amounted to 4.5 ×10⁻⁶ cm/s. 0.22 µM corresponded to half-maximal inhibition against BCoR-BCL6 [1] (IC50).
Turning to `O=c1[nH]c2ccc(Nc3ccc([N+](=O)[O-])cc3Br)cc2[nH]1`, on BCoR-BCL6 [1], half-maximal inhibition (IC50) was put at 83 µM.
In the case of `O=c1[nH]c2ccc(Nc3ccc([N+](=O)[O-])cc3C(F)(F)F)cc2[nH]1`, on BCoR-BCL6 [1], the IC50 is > 300 µM.
Consider `NC(=O)c1ccc(Nc2ccc3[nH]c(=O)[nH]c3c2)c(Cl)c1`, for which the midpoint of inhibition on BCoR-BCL6 [1], the IC50, lay at 43 µM.
As usually defined, the bioavailability is dose-corrected exposure relative to a reference, in per cent. As a reminder, the AUC is the area under the concentration-time curve, a measure of exposure. A higher AUC goes with more exposure. As usually defined, the MRT is the average time that molecules of a dose stay in the body. The Tmax is the time from dosing to the highest level. Broadly, the Cmax is the peak of the concentration-time curve. For `O=C1CCc2cc(Nc3cc(OC4CCOCC4)c([N+](=O)[O-])cc3Cl)ccc2N1`, the bioavailability in data set [7] turned out to be 79.9%. Moreover, the AUC in data set [8] is 1270 ng·h/mL. In addition, the mean residence time (MRT) in data set [9] is 3.3 h. This molecule also came in with a solubility in data set [3] of 12 µg/mL (≈ 28.7 µM). Also, in [10], the Vd came out at 1.51 L/kg. Also, the IC50 stood at 0.72 µM at BCoR-BCL6 [11] and 0.1 µM against BCoR-BCL6 [1]. Moreover, the Tmax in data set [12] turned out to be 2 h. In addition, the viability at 24 h, 30 µM in data set [6] worked out at 83%. The Papp at 3 h, 10 µM in data set [4] is 20.6 ×10⁻⁶ cm/s. For the same molecule, the highest level in [13] (Cmax) was 233 ng/mL. Moreover, in [14], the clearance is 10.5 mL/min/kg.
Molecule `O=C1Cc2cc(Nc3cc(OC4CCOCC4)c([N+](=O)[O-])cc3Cl)ccc2N1` displayed a solubility in data set [3] of 12 µg/mL (≈ 29.7 µM). In addition, the viability at 24 h, 30 µM in data set [6] is 99%. Moreover, the Papp at 3 h, 10 µM in [4] amounted to 28.8 ×10⁻⁶ cm/s.
`O=c1[nH]c2ccc(Nc3cc(NC4CCOCC4)c([N+](=O)[O-])cc3Cl)cc2[nH]1` came in with a solubility in data set [3] of 0.61 µg/mL (≈ 1.51 µM). Further, in data set [4], the Papp at 3 h, 10 µM worked out at 10.1 ×10⁻⁶ cm/s. Also, at BCoR-BCL6 [1], half-maximal inhibition (IC50) was put at 0.13 µM.
Consider `COC(=O)c1ccc(Nc2ccc3[nH]c(=O)[nH]c3c2)c(Cl)c1`, for which half-maximal inhibition against BCoR-BCL6 [1] (IC50) required 8.6 µM.
With `O=C(O)CCNc1cc(Nc2ccc3[nH]c(=O)[nH]c3c2)c(Cl)cc1[N+](=O)[O-]`, the solubility in data set [3] is > 72 µg/mL. For the same molecule, in data set [4], the permeability result is “Impermeable”. The same molecule had an IC50 against BCoR-BCL6 [1] of 0.13 µM.
Consider `N#Cc1cc([N+](=O)[O-])ccc1Nc1ccc2[nH]c(=O)[nH]c2c1`, for which, on BCoR-BCL6 [1], the IC50 worked out at 4.3 µM.
With `O=c1[nH]c2ccc(Nc3cc(NCCCO)c([N+](=O)[O-])cc3Cl)cc2[nH]1`, the solubility in data set [3] was 0.09 µg/mL (≈ 0.238 µM). In addition, the values for the IC50 at BCoR-BCL6 [11] and against BCoR-BCL6 [1] were > 100 µM and 0.24 µM, respectively. In addition, the permeability result in data set [4] is “Impermeable”.
In data set [2], `O=[N+]([O-])c1c(NCCCO)cc(Nc2ccc(F)cc2)c2nonc12` registered a Kd of 24 µM. On BCoR-BCL6 [1], this molecule came in with an IC50 of 14 µM.
`O=C(O)c1ccc(Nc2ccc3[nH]c(=O)[nH]c3c2)c(Cl)c1` registered a concentration for half-maximal inhibition (IC50) at BCoR-BCL6 [1] of 62 µM.
For `O=c1[nH]c2ccc(Nc3cc(NCc4cccnc4)c([N+](=O)[O-])cc3Cl)cc2[nH]1`, in [3], the solubility is < 0.23 µg/mL. Further, in data set [4], the Papp at 3 h, 10 µM is 14.7 ×10⁻⁶ cm/s. This molecule also displayed an IC50 at BCoR-BCL6 [1] of 0.15 µM.
As for `N#Cc1ccc(Nc2ccc3[nH]c(=O)[nH]c3c2)c(Cl)c1` [TP-021n], on BCoR-BCL6 [1], it took 110 µM to reach half-maximal inhibition (IC50).

The values are drawn from ChEMBL document CHEMBL4043133, “Discovery of a novel B-cell lymphoma 6 (BCL6)-corepressor interaction inhibitor by utilizing structure-based drug design” (Bioorg Med Chem, 2017).
